Assay results: ChEMBL document CHEMBL2440080, “Synthesis and biological evaluation of novel acylhydrazone derivatives as potential antitumor agents” (Bioorg Med Chem, 2013)

Legend:
[1] = Cytotoxicity against human EKVX cells after 48 hrs by sulforhodamine B assay; type: functional
TK-10 = test: Cytotoxicity against human TK10 cells after 48 hrs by sulforhodamine B assay; type: functional; settings: TK-10, 48 h
SR = test: Cytotoxicity against human SR cells after 48 hrs by sulforhodamine B assay; type: functional
U-251 = test: Cytotoxicity against human U251 cells after 48 hrs by sulforhodamine B assay; type: functional; settings: U-251, 48 h
RXF 393 = test: Cytotoxicity against human RXF393 cells after 48 hrs by sulforhodamine B assay; type: functional; settings: RXF 393, 48 h
UACC-62 = test: Cytotoxicity against human UACC62 cells after 48 hrs by sulforhodamine B assay; type: functional; settings: UACC-62, 48 h
DU-145 = test: Cytotoxicity against human DU145 cells after 48 hrs by sulforhodamine B assay; type: functional; settings: DU-145, 48 h
HOP-62 = test: Cytotoxicity against human HOP62 cells after 48 hrs by sulforhodamine B assay; type: functional; settings: HOP-62, 48 h
OVCAR-4 = test: Cytotoxicity against human OVCAR4 cells after 48 hrs by sulforhodamine B assay; type: functional; settings: OVCAR-4, 48 h
RPMI-8226 = test: Cytotoxicity against human RPMI8226 cells after 48 hrs by sulforhodamine B assay; type: functional; settings: RPMI-8226, 48 h
LOX IMVI = test: Cytotoxicity against human LOXIMVI cells after 48 hrs by sulforhodamine B assay; type: functional
NCI-H322M = test: Cytotoxicity against human NCI-H322M cells after 48 hrs by sulforhodamine B assay; type: functional
Mus musculus = test: Toxicity in athymic nude mouse assessed as survival at 400 mg/kg, ip measured after 2 weeks; type: organism-based; parameters: dose 400 mg/kg, route intraperitoneal; settings: in vivo, 336 h
PC-3 = test: Cytotoxicity against human PC3 cells after 48 hrs by sulforhodamine B assay; type: functional; settings: PC-3, 48 h
HL-60(TB) = test: Cytotoxicity against human HL-60(TB) cells after 48 hrs by sulforhodamine B assay; type: functional; settings: HL-60, 48 h
SNB-75 = test: Cytotoxicity against human SNB75 cells after 48 hrs by sulforhodamine B assay; type: functional; settings: SNB-75, 48 h
HOP-92 = test: Cytotoxicity against human HOP92 cells after 48 hrs by sulforhodamine B assay; type: functional; settings: HOP-92, 48 h
CCRF-CEM = test: Cytotoxicity against human CCRF-CEM cells after 48 hrs by sulforhodamine B assay; type: functional
IGROV-1 = test: Cytotoxicity against human IGROV1 cells after 48 hrs by sulforhodamine B assay; type: functional; settings: IGROV-1, 48 h
CAKI-1 = test: Cytotoxicity against human CAKI-1 cells after 48 hrs by sulforhodamine B assay; type: functional; settings: CAKI-1, 48 h
ACHN = test: Cytotoxicity against human ACHN cells after 48 hrs by sulforhodamine B assay; type: functional
T47D = test: Cytotoxicity against human T47D cells after 48 hrs by sulforhodamine B assay; type: functional
OVCAR-8 = test: Cytotoxicity against human OVCAR8 cells after 48 hrs by sulforhodamine B assay; type: functional; settings: OVCAR-8, 48 h
HCT-116 = test: Cytotoxicity against human HCT116 cells after 48 hrs by sulforhodamine B assay; type: functional; settings: HCT-116, 48 h
HCT-15 = test: Cytotoxicity against human HCT15 cells after 48 hrs by sulforhodamine B assay; type: functional; settings: HCT-15, 48 h
M14 = test: Cytotoxicity against human M14 cells after 48 hrs by sulforhodamine B assay; type: functional; settings: M14, 48 h
SF-295 = test: Cytotoxicity against human SF295 cells after 48 hrs by sulforhodamine B assay; type: functional; settings: SF-295, 48 h
OVCAR-3 = test: Cytotoxicity against human OVCAR3 cells after 48 hrs by sulforhodamine B assay; type: functional; settings: OVCAR-3, 48 h
KM12 = test: Cytotoxicity against human KM12 cells after 48 hrs by sulforhodamine B assay; type: functional; settings: KM12, 48 h
MOLT-4 = test: Cytotoxicity against human MOLT4 cells after 48 hrs by sulforhodamine B assay; type: functional; settings: MOLT-4, 48 h
BT-549 = test: Cytotoxicity against human BT549 cells after 48 hrs by sulforhodamine B assay; type: functional; settings: BT-549, 48 h
SF-268 = test: Cytotoxicity against human SF268 cells after 48 hrs by sulforhodamine B assay; type: functional; settings: SF-268, 48 h
NCI-H460 = test: Cytotoxicity against human NCI-H460 cells after 48 hrs by sulforhodamine B assay; type: functional; settings: NCI-H460, 48 h
NCI/ADR-RES = test: Cytotoxicity against human NCI/ADR-RES cells after 48 hrs by sulforhodamine B assay; type: functional

O=C(N/N=C/c1ccccc1O)c1ccccc1Nc1ccnc(C(F)(F)F)c1 gave a GI50 [1] of 316 nM, a GI50 (TK-10) of 501 nM and a GI50 (SR) of 50.1 nM. The GI50 (U-251) was 501 nM, the GI50 (RXF 393) was 63.1 nM and the GI50 (UACC-62) was 398 nM. It also gave a GI50 (DU-145) of 631 nM, a GI50 (HOP-62) of 398 nM and a GI50 (OVCAR-4) of 251 nM. For the same molecule, the GI50 (RPMI-8226) was 200 nM, the GI50 (LOX IMVI) was 316 nM and the GI50 (NCI-H322M) was 398 nM. The Activity (Mus musculus) was “Non-toxic”, the GI50 (PC-3) was 126 nM and the GI50 (HL-60(TB)) was 398 nM. It also gave a GI50 (SNB-75) of 316 nM, a GI50 (HOP-92) of 158 nM and a GI50 (CCRF-CEM) of 200 nM. For the same molecule, the GI50 (IGROV-1) was 15.8 nM, the GI50 (CAKI-1) was 316 nM and the GI50 (ACHN) was 398 nM. It also gave a GI50 (T47D) of 1260 nM, a GI50 (OVCAR-8) of 501 nM and a GI50 (HCT-116) of 398 nM. The GI50 (HCT-15) was 200 nM, the GI50 (M14) was 501 nM and the GI50 (SF-295) was 501 nM. For the same molecule, the GI50 (OVCAR-3) was 316 nM, the GI50 (KM12) was 398 nM and the GI50 (MOLT-4) was 316 nM. The GI50 (BT-549) was 631 nM, the GI50 (SF-268) was 631 nM and the GI50 (NCI-H460) was 251 nM. It also gave a GI50 (NCI/ADR-RES) of 398 nM.
